Consider one compound from patent US9452169B2, “Substituted diketopiperazines and their use as oxytocin antagonists” (Glaxo Group Limited, priority 2003, dated 2016).

Structures are written as SMILES.

The data set deals with rats. The settings on record: rat, in vivo, 30 mg/kg.

On to `CC[C@H](C)[C@@H]1C(=O)N[C@H](C2Cc3ccccc3C2)C(=O)N1[C@@H](C(=O)N1CCOCC1)c1coc(C)n1` [Example 1, (3R,6R)-3-(2,3-dihydro-1H-inden-2-yl)-1-[(1R)-1-(2-methyl-1,3-oxazol-4-yl)-2-(4-morpholinyl)-2-oxoethyl]-6-[(1S)-1-methylpropyl]-2,5-piperazinedione], for which the adverse toxicological effects result is “no adverse toxicological effects were observed”.
